This note sets out measurements from patent US10150760B2, “Compounds for use in preparing heterocyclic triazole agonists of the APJ receptor” (AMGEN INC., priority 2016, dated 2018).

Chain of human APJ receptor (P35414 whole entry): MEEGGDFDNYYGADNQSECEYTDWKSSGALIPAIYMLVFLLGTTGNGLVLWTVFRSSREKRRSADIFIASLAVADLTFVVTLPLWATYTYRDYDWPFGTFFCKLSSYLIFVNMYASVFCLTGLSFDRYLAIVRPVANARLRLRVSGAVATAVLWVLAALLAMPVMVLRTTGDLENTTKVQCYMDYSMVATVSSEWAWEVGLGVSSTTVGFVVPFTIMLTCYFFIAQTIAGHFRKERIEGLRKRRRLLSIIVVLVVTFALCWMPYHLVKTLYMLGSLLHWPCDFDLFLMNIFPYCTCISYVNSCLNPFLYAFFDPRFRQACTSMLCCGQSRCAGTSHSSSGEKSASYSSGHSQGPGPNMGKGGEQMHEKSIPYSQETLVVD

This assay addresses human APJ receptor (Homo sapiens (Human), UniProt P35414). In words: [35S]GTPγS binding assay on membranes from CHO cells stably expressing human APJ receptor. The format is biochemical. The following applies: read-out: Activity hAPJ SPA EC50 IP. An outline of the steps: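 Agonist-driven [35S]GTPγS (0.2 nM) binding was measured over 90 min at room temperature on human APJ-expressing CHO membranes with bead capture, in buffer containing 3 μM GDP, 200 mM NaCl and 5 mM MgCl2 (pH 7.5). Excess unlabelled GTPγS (100 μM) gave nonspecific signal; EC50 from non-linear fits.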
In the case of `COc1cccc(OC)c1-n1c(NS(=O)(=O)[C@@H](C)[C@@H](OC(C)C)c2ncc(Cl)cn2)nnc1[C@H]1CCC(=O)N1` (single isomer, unassigned) [Example 399.0, (1S,2S)-1-(5-chloro-2-pyrimidinyl)-N-(4-(2,6-dimethoxyphenyl)-5-((2R)-5-oxo-2-pyrrolidinyl)-4H-1,2,4-triazol-3-yl)-1-(2-propanyloxy)-2-propanesulfonamide or (1S,2S)-1-(5-chloro-2-pyrimidinyl)-N-(4-(2,6-dimethoxyphenyl)-5-((2S)-5-oxo-2-pyrrolidinyl)-4H-1,2,4-triazol-3-yl)-1-(2-propanyloxy)-2-propanesulfonamide], the EC50 worked out at 470 nM.
For `COc1cccc(OC)c1-n1c(NS(=O)(=O)[C@@H](C)[C@@H](OC(C)C)c2ncc(Cl)cn2)nnc1[C@H]1CCC(=O)N1` (single isomer, unassigned) [Example 400.0, (1S,2S)-1-(5-chloro-2-pyrimidinyl)-N-(4-(2,6-dimethoxyphenyl)-5-((2R)-5-oxo-2-pyrrolidinyl)-4H-1,2,4-triazol-3-yl)-1-(2-propanyloxy)-2-propanesulfonamide or (1S,2S)-1-(5-chloro-2-pyrimidinyl)-N-(4-(2,6-dimethoxyphenyl)-5-((2S)-5-oxo-2-pyrrolidinyl)-4H-1,2,4-triazol-3-yl)-1-(2-propanyloxy)-2-propanesulfonamide], the EC50 was found to be 330 nM.
Turning to `CO[C@H](c1ncc(Cl)cn1)[C@H](C)S(=O)(=O)Nc1nnc([C@H]2CCOC2)n1Cc1ccon1` (single isomer, unassigned) [Example 401.0, (1R,2S)-1-(5-chloro-2-pyrimidinyl)-1-methoxy-N-(4-(1,2-oxazol-3-ylmethyl)-5-((3R)-tetrahydro-3-furanyl)-4H-1,2,4-triazol-3-yl)-2-propanesulfonamide or (1R,2S)-1-(5-chloro-2-pyrimidinyl)-1-methoxy-N-(4-(1,2-oxazol-3-ylmethyl)-5-((3S)-tetrahydro-3-furanyl)-4H-1,2,4-triazol-3-yl)-2-propanesulfonamide], the EC50 turned out to be 100 nM.
Turning to `CO[C@H](c1ncc(Cl)cn1)[C@H](C)S(=O)(=O)Nc1nnc([C@H]2CCOC2)n1Cc1ccon1` (single isomer, unassigned) [Example 402.0, (1R,2S)-1-(5-chloro-2-pyrimidinyl)-1-methoxy-N-(4-(1,2-oxazol-3-ylmethyl)-5-((3R)-tetrahydro-3-furanyl)-4H-1,2,4-triazol-3-yl)-2-propanesulfonamide or (1R,2S)-1-(5-chloro-2-pyrimidinyl)-1-methoxy-N-(4-(1,2-oxazol-3-ylmethyl)-5-((3S)-tetrahydro-3-furanyl)-4H-1,2,4-triazol-3-yl)-2-propanesulfonamide], the EC50 was 410 nM.
Turning to `CO[C@H](c1ncc(Cl)cn1)[C@H](C)S(=O)(=O)Nc1nnc([C@@H]2CC[C@H](C)O2)n1Cc1ccon1` (single isomer, unassigned) [Example 403.0, (1R,2S)-1-(5-chloro-2-pyrimidinyl)-1-methoxy-N-(5-((2S,5S)-5-methyltetrahydro-2-furanyl)-4-(1,2-oxazol-3-ylmethyl)-4H-1,2,4-triazol-3-yl)-2-propanesulfonamide or (1R,2S)-1-(5-chloro-2-pyrimidinyl)-1-methoxy-N-(5-((2R,5R)-5-methyltetrahydro-2-furanyl)-4-(1,2-oxazol-3-ylmethyl)-4H-1,2,4-triazol-3-yl)-2-propanesulfonamide], the EC50 amounted to 280 nM.
In the case of `CO[C@H](c1ncc(Cl)cn1)[C@H](C)S(=O)(=O)Nc1nnc([C@@H]2CC[C@H](C)O2)n1Cc1ccon1` (single isomer, unassigned) [Example 404.0, (1R,2S)-1-(5-chloro-2-pyrimidinyl)-1-methoxy-N-(5-((2S,5S)-5-methyltetrahydro-2-furanyl)-4-(1,2-oxazol-3-ylmethyl)-4H-1,2,4-triazol-3-yl)-2-propanesulfonamide or (1R,2S)-1-(5-chloro-2-pyrimidinyl)-1-methoxy-N-(5-((2R,5R)-5-methyltetrahydro-2-furanyl)-4-(1,2-oxazol-3-ylmethyl)-4H-1,2,4-triazol-3-yl)-2-propanesulfonamide], the EC50 turned out to be 81 nM.
